Data reported in US7368279B2, “Three dimensional bioengineered smooth muscle tissue and sphincters and methods therefor” (The Regents of The University of Michigan, priority 2004, dated 2008).

Assays:
[1] = test system: bioengineered colon smooth muscle rings; assay: Isometric force of bioengineered colon smooth muscle rings; assay type: cell-based, rabbit
Protocol: To develop a three dimensional physiological model of the smooth muscle cells in vitro, isolated colonic smooth muscle cells were used. Smooth muscle cells isolated from the colon of rabbits were seeded in a fibrin-based tissue construct as described in detail in Example 2. In this construct, the smooth muscle cells migrated and self-assembled in circumferential alignment. As the cells proliferated, the fibrin gel shrunk and contracted around a 5 mm diameter SYLGARD mold, resulting in a 3-D cylindrical ring of colonic tissue (smooth muscle ring). […] Maximal ΔP induced by acetylcholine stimulation was 17.8 μN, resulting in a specific force (sΔP) of […].

[2] = test system: isolated smooth muscle cells from the rabbit IAS; assay: Acetylcholine-induced contraction of isolated IAS smooth muscle cells (decrease in cell length); assay type: cell-based; settings: for contraction, percent decrease in cell length from control: 10^−7 M acetylcholine, HEPES buffer; for decrease in cell length: acetylcholine, 0 Ca2+/2 mM EGTA HEPES buffer
Source text: Smooth muscle cells were isolated from the internal anal sphincter (IAS) of New Zealand White rabbits as described previously (Bitar et al., Am J Physiol 260: G537-G542, 1991; Bitar et al., Am J Physiol 242: G400-G407, 1982). Briefly, the IAS, consisting of the most distal 3 mm of the circular muscle layer, ending at the junction of skin and mucosa, was removed by sharp dissection. The sphincter was rapidly cleaned and striped of connective tissue in ice cold carbonated Krebs solution containing 2% penicillin-streptomycin. The tissue was cut into small pieces and transferred to a 100 mm plate containing 15 ml of HEPES buffer (pH 7.4; NaCl (115 mM), KCl (5.7 mM), KH2PO4 (2.0 mM), HEPES (24.6 mM), CaCl2 (1.9 mM), MgCl2 (0.6 mM), glucose (5.6 mM), 0.01% soybean trypsin inhibitor, and 0.184 (wt/vol) DMEM) with 0.1% collagenase type II (Worthington Biochemical Corp., Lakewood, N.J.) for digestion in an incubator (37° C. with 5% CO2) for 1 hour. Fresh HEPES buffer (15 ml) with collagenase was added and the contents of the plate were mechanically dissociated using a 10 ml pipette and incubated for 1 additional hour. After the second digestion period, the cells were collected, centrifuged at 800×g for 10 minutes and the supernatant discarded. The cells were washed (3×) a to ensure removal of excess collagenase and ultimately re-suspended in either HEPES buffer or 0 Ca^2+/2 mM EGTA HEPES buffer (HEPES without CaCl2 and containing 2 mM EGTA). To determine the effect of acetylcholine on contraction of isolated muscle cells, acetylcholine (10^−7 M) was added to a suspension of isolated smooth muscle cells for 30 seconds or 4 minutes with untreated cells as controls. The reaction was stopped and cells were fixed by the addition of 0.1 ml of acrolein at a final concentration of 0.1%. Individual cell lengths were measured by computerized image micrometry (Bitar et al., Am J Physiol 242: G400-G407, 1982. Bitar et al., Science 216: 531-533, 1982). The length of cells in the control state or after addition of acetylcholine was obtained by measuring 30-50 cells encountered randomly in successive microscopic fields from each of three separate experiments. The contractile response is defined as the decrease in the average length of the cells counted and is expressed as the percent change from the control length.

[3] = test system: bioengineered IAS rings; assay: Isometric force (contraction/relaxation) of bioengineered IAS rings; assay type: cell-based, rabbit
Protocol: Excitability and contractility of bioengineered IAS rings was measured using techniques adapted from previous work (Dennis et al., In Vitro Cellular & Developmental Biology Animal 36: 327-335, 2000. Dennis et al., American Journal of Physiology Cell Physiology 280: C288-C295, 2001). The diameter of the sphincter rings was measured and used to calculate cross-sectional area (CSA). The bioengineered sphincters were separated from their molds using forceps (FIG. 1 Panel E) and the minimum ring diameter was measured using a calibrated eyepiece and a 5× or 10× objective lens on an inverted microscope (Zeiss Axiovert 25, Thornwood, N.Y.). The cross section was circular, and therefore the CSA was calculated using the measured diameter. To measure the passive baseline force, the differentiation media in the plate containing the bioengineered sphincter was replaced with 37° C. Krebs solution (NaCl (119 mM), KCl (4.6 mM), NaHCO3 (15 mM), CaCl2 (1.5 mM), MgCl2 (1.2 mM), […], and glucose (11 mM)) and the plate was placed on a heated aluminum platform, which maintained a temperature of 37° C. until the testing was complete. For contractility measurements, one end of the bioengineered sphincter was anchored by a stainless steel pin (10 mm×0.1 mm diameter) to the PDMS substrate within the plate, while another stainless steel pin was bent in the shape of a hook and attached by canning wax to a force transducer (resolution of 1.4 μN and range of 2mN) as previously described (Dennis et al., In Vitro Cellular & Developmental Biology Animal 36: 327-335, 2000, Macpherson et al., J Physiol 500: 523-533, 1997) and as depicted in FIG. 1 (Panels F and G). The bioengineered sphincter was stretched approximately 50% of its resting length using a three-axis micromanipulator. The ring was allowed to sit for 20 minutes in order to reestablish a stable baseline level of force (Pb), which was measured as the average baseline passive force preceding stimulation. All force measurements were collected at 100 samples/second for 60 seconds and recorded using a computer with LabVIEW data acquisition software (National Instruments, Austin, Tex.). A median filter of rank 2 was applied to all raw force data before being stored to minimize digitization noise without causing a phase delay for rapidly changing forces. The peak isometric force (ΔP) was determined by subtracting the Pb from the total force values. Specific force (sΔP) was calculated by dividing ΔP by the CSA. Data analysis was done using LabVIEW and Microsoft Excel software programs. Each measurement was repeated at least three times and the mean value was recorded. Contractions were induced in the rings by the addition of acetylcholine. Dose-response relationships of acetylcholine were investigated in the range of 10^−6M to 10^−10M. Incremental doses of acetylcholine were added after the maximal response of the preceding concentration and the establishment of a new baseline. Relaxation response in the rings was induced by the addition of 8-Bromoadenosine 3′:5′-Cyclic Monophosphate (8-br-cAMP). Maximal relaxation was achieved after approximately 4 minutes and therefore relaxation measurements are collective of four consecutive 1-minute data recordings.

## CC(=O)OCC[N+](C)(C)C [acetylcholine]
[1]
  maximal ΔP induced by acetylcholine stimulation: 17.8 μN
[2]; 30 seconds
  contraction, percent decrease in cell length from control: 28.85±3.20%
  decrease in cell length: 0.5±4.47%
[2]; 4 minutes
  contraction, percent decrease in cell length from control: 27.09±4.43%
  decrease in cell length: 4±3.91%
[3]; 10-fold incremental doses 10^−10 M to 10^−6 M
  concentration at which the concentration-dependent contractile response reaches a plateau: 10^−7 M
[3]; 10^−7 M acetylcholine, Krebs buffer, sustained for 4 minutes
  peak isometric force ΔP: 9.8±3.8 μN
[3]; Krebs buffer
  maximal ΔP induced by acetylcholine stimulation: 33.7 μN
